Results as given in patent publication US20040192720A1, “Novel heteroaryl alkylamide derivatives useful as bradykinin receptor modulators” (priority 2003, published 2004).

Molecular target: T1, human B2 bradykinin receptors (CHO-hB2 cell membranes) (Homo sapiens, UniProt P30411)
T1 construct: purchased Receptor Biology, Inc. (Baltimore, Md.); host or cells: CHO-hB2 cells (membranes)
T1 sequence (P30411 1-391): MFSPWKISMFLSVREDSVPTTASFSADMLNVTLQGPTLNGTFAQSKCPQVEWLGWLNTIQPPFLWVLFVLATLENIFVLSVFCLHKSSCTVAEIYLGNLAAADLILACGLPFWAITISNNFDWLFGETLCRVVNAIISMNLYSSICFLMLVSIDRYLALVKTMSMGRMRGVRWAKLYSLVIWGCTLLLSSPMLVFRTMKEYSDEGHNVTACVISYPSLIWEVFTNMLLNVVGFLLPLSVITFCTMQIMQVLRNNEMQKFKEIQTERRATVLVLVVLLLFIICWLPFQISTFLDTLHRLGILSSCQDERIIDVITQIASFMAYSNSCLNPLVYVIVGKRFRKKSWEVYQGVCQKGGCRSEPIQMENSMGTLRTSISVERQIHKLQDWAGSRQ
Assay: [35S]GTPγS Binding Assay in CHO-hB2 Cell Membranes
Format: biochemical
Details: bradykinin-stimulated [35S]GTPγS binding; for Functional Activity (% Basal): number in parentheses, concentration not given
Experimental: [^35S]GTPγS Binding Assay in CHO-hB2Cell Membranes
CHO-hB2 cell membranes were purchased from Receptor Biology, Inc. (Baltimore, Md.). 10 mg/mL of membrane protein was suspended in 10 mM TRIS-HC pH 7.2, 2 mM EDTA, 10% sucrose.
Membranes were added into 15 mL ice cold binding assay buffer. The assay buffer contained 50 mM HEPES, pH 7.6, 5 mM MgCl2, 100 mM NaCl, 1 mM DTT and 1 mM EDTA. The membrane suspension was homogenized twice with a Polytron and centrifuged at 3000 rpm for 10 min. The supernatant was then centrifuged at 18,000 rpm for 20 min. The pellet was saved in a tube and resuspended.
The pellet membranes (40 μg/mL) were preincubated with SPA (scintillation proximity assay) beads (20 mg/mL) at 25 C. ° for 45 min in the assay buffer. The SPA beads (5 mg/mL) coupled with membranes (10 μg/mL) were then incubated with 0.5 nM [^35S]GTPγS in the same HEPES buffer containing 50 μM GDP in total volume of 200 μL. Bradykinin was used to stimulate [^35S]GTPγS binding. Varying concentrations of drugs were incubated with bradykinin to inhibit bradykinin-stimulated [^35S]GTPγS binding. The basal binding was tested in the absence of bradykinin and no specific binding was tested in the present 10 μM unlabeled GTPγS. The radioactivity was quantified on a Packard Top Count, and calculated.
% of Basal=(stimulated binding−non specific binding)/(basal binding−non specific binding)×100.

SMILES | Functional Activity (word result) | Functional Activity (% Basal)
Cc1ccc2cccc(OCc3c(Cl)ccc(N(C)C(=O)Cc4cc(C(=O)c5ccc(C#N)cc5)n(C)c4)c3Cl)c2n1 [Compound 4, 2-[5-(4-Cyano-benzoyl)-1-methyl-1H-pyrrol-3-yl]-N-[2,4-dichloro-3-(2-methyl-quinolin-8-yloxymethyl)-phenyl]-N-methyl-acetamide] | Antagonist | 
COc1ccc(C(=O)c2ccc(CC(=O)N(C)c3ccc(Cl)c(COc4cccc5ccc(C)nc45)c3Cl)[nH]2)cc1 [Compound 5] | Antagonist | 
CCCCn1c(CC(=O)N(C)c2ccc(Cl)c(COc3cccc4ccc(C)nc34)c2Cl)ccc1C(=O)c1ccc(C#N)cc1 [Compound 10] | No effect | 1 % Basal
CCN(C(=O)Cc1ccc(C(=O)c2ccc(C#N)cc2)n1C)c1ccc(C)c(COc2cccc3ccc(C)nc23)c1C [Compound 16] | No effect | 1 % Basal
CCN(C(=O)Cc1ccc(C(=O)c2ccc(Cl)nc2)n1C)c1ccc(Cl)c(COc2cccc3ccc(C)nc23)c1Cl [Compound 17] | No effect | 1 % Basal
CCN(C(=O)Cc1ccc(C(=O)c2ccc(C#N)cc2)n1C)c1ccc(Cl)c(COc2cccc3ccc(C)nc23)c1Cl [Compound 18] | No effect | 1 % Basal
Cc1ccc2cccc(OCc3c(Cl)ccc(N(C)C(=O)Cc4ccc(C(=O)CN5CCC(c6ccccc6)CC5)n4C)c3Cl)c2n1 [Compound 58, N-[2,4-Dichloro-3-(2-methyl-quinolin-8-yloxymethyl)-phenyl]-N-methyl-2-{1-methyl-5-[2-(4-phenyl-piperidin-1-yl)-acetyl]-1H-pyrrol-2-yl}-acetamide] | No effect | 1 % Basal
Cc1ccc2cccc(OCc3c(Cl)ccc(N(C)C(=O)Cc4ccc(C(=O)CN5CCC(Cc6ccccc6)CC5)n4C)c3Cl)c2n1 [Compound 59] | No effect | 1 % Basal
Cc1ccc2cccc(OCc3c(Cl)ccc(N(C)C(=O)Cc4ccc(C(=O)c5ccc([N+](=O)[O-])cc5)n4C)c3Cl)c2n1 [Compound 63] | Antagonist | 
Cc1ccc2cccc(OCc3c(Cl)ccc(N(C)C(=O)Cc4ccc(C(=O)c5ccccc5[N+](=O)[O-])n4C)c3Cl)c2n1 [Compound 66] | Antagonist | 
Cc1ccc2cccc(OCc3c(Cl)ccc(N(C)C(=O)Cc4ccc(C(=O)c5ccc([S+](C)[O-])cc5)n4C)c3Cl)c2n1 (stereo not shown) [Compound 73, N-[2,4-Dichloro-3-(2-methyl-quinolin-8-yloxymethyl)-phenyl]-2-[5-(4-methanesulfinyl-benzoyl)-1-methyl-1H-pyrrol-2-yl]-N-methyl-acetamide] | Antagonist | 
Cc1ccc2cccc(OCc3c(Cl)ccc(N(C)C(=O)Cc4ccc(C(=O)c5ccc(C#N)cc5)n4C)c3Cl)c2n1 [Compound 76] | Antagonist | 
Cc1ccc2cccc(OCc3c(C)ccc(N(C)C(=O)CCc4ccc(C(=O)c5cccs5)n4C)c3C)c2n1 [Compound 80] | Weak antagonist | 
Cc1ccc2cccc(OCc3c(C)ccc(N(C)C(=O)CCc4ccc(C(=O)c5ccncc5)n4C)c3C)c2n1 [Compound 82] | Antagonist | 50 % Basal

Further lines, results first:

Functional Activity (word result) | Functional Activity (% Basal) | SMILES
Antagonist | 40 % Basal | CCn1c(CC(=O)N(C)c2ccc(Cl)c(COc3cccc4ccc(C)nc34)c2Cl)ccc1C(=O)c1ccc(C#N)cc1 [Compound 8]
No effect | 1 % Basal | CCCn1c(CC(=O)N(C)c2ccc(Cl)c(COc3cccc4ccc(C)nc34)c2Cl)ccc1C(=O)c1ccc(C#N)cc1 [Compound 9]
No effect | 1 % Basal | Cc1ccc2cccc(OCc3c(Cl)ccc(N(C)C(=O)Cc4ccc(C(=O)c5ccc(C#N)cc5)n4CC4CC4)c3Cl)c2n1 [Compound 11, 2-[5-(4-Cyano-benzoyl)-1-cyclopropylmethyl-1H-pyrrol-2-yl]-N-[2,4-dichloro-3-(2-methyl-quinolin-8-yloxymethyl)-phenyl]-N-methyl-acetamide]
No effect | 1 % Basal | Cc1ccc2cccc(OCc3c(Cl)ccc(N(C)C(=O)Cc4ccc(C(=O)c5ccc(C#N)cc5)n4CC(C)C)c3Cl)c2n1 [Compound 12]
No effect | 1 % Basal | Cc1ccc2cccc(OCc3c(Cl)ccc(N(C)C(=O)Cc4ccc(C(=O)c5ccc(C#N)cc5)n4CCC(C)C)c3Cl)c2n1 [Compound 13]
Weak antagonist |  | Cc1ccc2cccc(OCc3c(Cl)ccc(N(C)C(=O)Cc4ccc(C(=O)c5cccs5)n4C)c3Cl)c2n1 [Compound 61]
Antagonist |  | Cc1ccc2cccc(OCc3c(Cl)ccc(N(C)C(=O)Cc4ccc(C(=O)c5ccc(C(=O)N(C)C)cc5)n4C)c3Cl)c2n1 [Compound 62, 4-[5-({[2,4-Dichloro-3-(2-methyl-quinolin-8-yloxymethyl)-phenyl]-methyl-carbamoyl}-methyl)-1-methyl-1H-pyrrole-2-carbonyl]-N,N-dimethyl-benzamide]
Antagonist |  | COC(=O)c1ccc(C(=O)c2ccc(CC(=O)N(C)c3ccc(Cl)c(COc4cccc5ccc(C)nc45)c3Cl)n2C)cc1 [Compound 64]
Antagonist |  | Cc1ccc2cccc(OCc3c(Cl)ccc(N(C)C(=O)Cc4ccc(C(=O)c5ccc([N+](=O)[O-])c(C)c5)n4C)c3Cl)c2n1 [Compound 65, N-[2,4-Dichloro-3-(2-methyl-quinolin-8-yloxymethyl)-phenyl]-N-methyl-2-[1-methyl-5-(3-methyl-4-nitro-benzoyl)-1H-pyrrol-2-yl]-acetamide]
Antagonist |  | Cc1ccc2cccc(OCc3c(Cl)ccc(N(C)C(=O)Cc4ccc(C(=O)c5ccc(Cl)nc5)n4C)c3Cl)c2n1 [Compound 67, 2-[5-(6-Chloro-pyridine-3-carbonyl)-1-methyl-1H-pyrrol-2-yl]-N-[2,4-dichloro-3-(2-methyl-quinolin-8-yloxymethyl)-phenyl]-N-methyl-acetamide]
Weak antagonist | 4 % Basal | COc1ccc(C(=O)c2ccc(CC(=O)N(C)c3ccc(Cl)c(COc4cccc5ccc(C)nc45)c3Cl)n2C)cc1 [Compound 68]
Antagonist |  | CSc1ccc(C(=O)c2ccc(CC(=O)N(C)c3ccc(Cl)c(COc4cccc5ccc(C)nc45)c3Cl)n2C)cc1 [Compound 69]
Antagonist |  | Cc1ccc2cccc(OCc3c(Cl)ccc(N(C)C(=O)Cc4ccc(C(=O)c5ccc(C#N)nc5)n4C)c3Cl)c2n1 [Compound 71]
Antagonist |  | CC(=O)Nc1cccc(C(=O)c2ccc(CC(=O)N(C)c3ccc(Cl)c(COc4cccc5ccc(C)nc45)c3Cl)n2C)c1 [Compound 72]
Antagonist |  | CC(=O)Nc1ccc(C(=O)c2ccc(CC(=O)N(C)c3ccc(Cl)c(COc4cccc5ccc(C)nc45)c3Cl)n2C)cc1 [Compound 74, 2-[5-(4-Acetylamino-benzoyl)-1-methyl-1H-pyrrol-2-yl]-N-[2,4-dichloro-3-(2-methyl-quinolin-8-yloxymethyl)-phenyl]-N-methyl-acetamide]
Antagonist |  | Cc1ccc2cccc(OCc3c(Cl)ccc(N(C)C(=O)Cc4ccc(C(=O)c5ccc(S(C)(=O)=O)cc5)n4C)c3Cl)c2n1 [Compound 75, N-[2,4-Dichloro-3-(2-methyl-quinolin-8-yloxymethyl)-phenyl]-2-[5-(4-methanesulfonyl-benzoyl)-1-methyl-1H-pyrrol-2-yl]-N-methyl-acetamide]
Antagonist | 100 % Basal | Cc1ccc2cccc(OCc3c(C)ccc(N(C)C(=O)Cc4ccc(C(=O)c5ccc(C#N)cc5)n4C)c3C)c2n1 [Compound 79, 2-[5-(4-Cyano-benzoyl)-1-methyl-1H-pyrrol-2-yl]-N-[2,4-dimethyl-3-(2-methyl-quinolin-8-yloxymethyl)-phenyl]-N-methyl-acetamide]
Antagonist |  | Cc1ccc2cccc(OCc3c(C)ccc(N(C)C(=O)CCc4ccc(C(=O)c5cccnc5)n4C)c3C)c2n1 [Compound 84]
